Measured values taken from paper PMC10139140, “Synthesis of Novel 2-(Cyclopentylamino)thiazol-4(5H)-one Derivatives with Potential Anticancer, Antioxidant, and 11β-HSD Inhibitory Activities” (International Journal of Molecular Sciences, 2023).

Assays:
[1] = target: T1, 11β-HSD1 (Homo sapiens, UniProt P28845); assay: Inhibition of 11β-HSD1 (cortisone to cortisol, human liver microsomes, cortisol ELISA); type: biochemical
T1 construct: Human liver microsomes were used as a source of 11β-HSD1 enzyme; tissue XenoTech Lot No. 1410013; host or cells: pooled human liver microsomes, mixed gender
Method: The resulting solution with a final volume of 100 µL was incubated for 2.5 h at 37 °C. To stop the reaction, 10 µL of a 100 µM solution of 18β-glycyrrhetinic acid in PBS was added. The level of cortisol obtained in the reaction was measured by commercially available ELISA kit.
As a control, analogous tests without the addition of inhibitors were used. Half the inhibitory concentration (causing 50% reduction of cortisol or cortisone) was read from the chart.

[2] = target: T2, 11β-HSD2 (Homo sapiens, UniProt P80365); assay: Inhibition of 11β-HSD2 (cortisol to cortisone, human microsomes, cortisol ELISA); type: biochemical; conditions: 2.5 h, 37 °C
T2 construct: Human liver microsomes were used as a source of 11β-HSD2 enzyme; tissue XenoTech Lot No. 1710160; host or cells: human kidney microsomes, mixed gender (method text says human liver microsomes)
T2 sequence (P80365 1-405): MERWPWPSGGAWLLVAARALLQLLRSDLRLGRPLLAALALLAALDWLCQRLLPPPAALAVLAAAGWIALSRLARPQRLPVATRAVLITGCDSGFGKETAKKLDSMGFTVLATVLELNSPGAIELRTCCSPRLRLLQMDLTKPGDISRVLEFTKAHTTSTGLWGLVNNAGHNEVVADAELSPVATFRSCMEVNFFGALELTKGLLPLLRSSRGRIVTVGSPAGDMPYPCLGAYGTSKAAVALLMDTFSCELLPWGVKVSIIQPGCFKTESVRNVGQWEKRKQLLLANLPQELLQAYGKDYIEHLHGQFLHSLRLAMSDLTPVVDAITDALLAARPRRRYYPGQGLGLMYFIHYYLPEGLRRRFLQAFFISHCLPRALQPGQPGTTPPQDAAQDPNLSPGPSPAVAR
Method: The resulting solution with a final volume of 100 µL was incubated for 2.5 h at 37 °C. […] The level of unreacted cortisol was measured by a commercially available ELISA kit.

[3] = system: BJ cells; assay: MTS metabolic activity assay, BJ cells; type: cell-based; conditions: Homo sapiens, 72 h, read-out: Cell metabolic activity (MTS), % of untreated control
Method: (§1) The BJ (CRL-2522), Caco-2 (HTB-37), PANC-1 (CRL-1469), U-118 MG (HTB-15), SK-MEL-30 (ACC 151), and MDA-MB-231 (HTB-26) cell lines were purchased from ATCC (Manassas, VA, USA) or DSMZ (Braunschweig, GERMANY). Cells were cultured in accordance with manufacturers' recommendations in a DMEM, MEM, or RPMI-1640 (Sigma, Saint Louis, MO, USA; Gibco, Waltham, MA, USA), supplemented with 10% FBS, except for Caco-2 (20%) (Thermo Fisher Scientific, Waltham, MA, USA) and 1% antibiotic mix solution (penicillin, streptomycin; Thermo Fisher Scientific, Waltham, MA, USA) in a humidified atmosphere with 5% CO2 at 37 °C. All cell lines were cultured in T75 cell culture flasks or cell culture dishes to reach 80–90% confluency and seeded at a standard density of 5 × 10^3 cells/0.32 cm^2, except for BJ cells at 2 × 10^3 cells/0.32 cm^2.
(§2) The MTS ((MTS: 3-(4,5-dimethylthiazol-2-yl)-5-(3-carboxymethoxyphenyl)-2-(4-sulfophenyl)-2H-tetrazolium)) assay was performed following previously reported method. Briefly, cells were seeded at a standard density into 96-well flat-bottom plates and incubated for 24 h, followed by the treatment. The various concentrations of compounds were prepared and treated for the next 72 h. MTS solution was added for 3h and incubated at standard conditions, protected from light. Finally, the absorbance was read at […] and 620 nm wavelengths using a Synergy H1 microplate reader (BioTek, Santa Clara, CA, USA). The results are presented as %, while untreated control cells were considered 100%.

[4] = system: human colon carcinoma (Caco-2); assay: MTS metabolic activity assay, Caco-2 cells; type: cell-based; conditions: Homo sapiens, 72 h, read-out: Cell metabolic activity (MTS), % of untreated control
Method: as §1, §2

[5] = system: human pancreatic carcinoma (PANC-1); assay: MTS metabolic activity assay, PANC-1 cells; type: cell-based; conditions: Homo sapiens, 72 h, read-out: Cell metabolic activity (MTS), % of untreated control
Method: as §1, §2

[6] = system: glioma (U-118 MG); assay: MTS metabolic activity assay, U-118 MG cells; type: cell-based; conditions: Homo sapiens, U-118-MG, U118-MG, 72 h, read-out: Cell metabolic activity (MTS), % of untreated control
Method: as §1, §2

[7] = system: skin melanoma (SK-MEL-30); assay: MTS metabolic activity assay, SK-MEL-30 cells; type: cell-based; conditions: Homo sapiens, 72 h, read-out: Cell metabolic activity (MTS), % of untreated control
Method: as §1, §2

[8] = system: human breast carcinoma (MDA-MB-231); assay: MTS metabolic activity assay, MDA-MB-231 cells; type: cell-based; conditions: Homo sapiens, 72 h, read-out: Cell metabolic activity (MTS), % of untreated control
Method: as §1, §2

T1 sequence (P28845 whole entry): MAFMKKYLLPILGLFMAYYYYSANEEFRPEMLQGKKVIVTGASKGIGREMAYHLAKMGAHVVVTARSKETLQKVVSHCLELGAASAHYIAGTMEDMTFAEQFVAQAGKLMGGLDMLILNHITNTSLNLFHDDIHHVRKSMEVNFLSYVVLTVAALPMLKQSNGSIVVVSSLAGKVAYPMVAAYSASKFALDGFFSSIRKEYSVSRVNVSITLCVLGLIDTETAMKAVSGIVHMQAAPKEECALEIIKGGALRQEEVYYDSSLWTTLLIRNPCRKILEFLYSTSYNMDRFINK

## CCC1SC(NC2CCCC2)=NC1=O (stereo not drawn) [Compound 3b, 2-(cyclopentylamino)-5-ethylthiazol-4(5H)-one]
[1]
  IC50: > 10 µM
[1]; 10 µM, 2.5 h, 37 °C
  inhibition at 10 µM: 21.3 ± 3.29%
[2]
  inhibition at 10 µM: 39.7 ± 0.07%
[3]; 10 µM
  viability at 10 µM: 97.9%
[3]; 20 µM
  viability at 20 µM: 98.5%
[3]; 50 µM
  viability at 50 µM: 102%
[3]; 100 µM
  viability at 100 µM: 108%
[3]; 200 µM
  viability at 200 µM: 110%
[3]; 300 µM
  viability at 300 µM: 112%
[3]; 500 µM
  viability at 500 µM: 111%
[4]; Caco-2, 10 µM
  viability at 10 µM: 87.9%
[4]; Caco-2, 20 µM
  viability at 20 µM: 87.3%
[4]; Caco-2, 50 µM
  viability at 50 µM: 84.4%
[4]; Caco-2, 100 µM
  viability at 100 µM: 79.8%
[4]; Caco-2, 200 µM
  viability at 200 µM: 77%
[4]; Caco-2, 300 µM
  viability at 300 µM: 73.2%
[4]; Caco-2, 500 µM
  viability at 500 µM: 66.1%
[5]; PANC-1, 10 µM
  viability at 10 µM: 103%
[5]; PANC-1, 20 µM
  viability at 20 µM: 102%
[5]; PANC-1, 50 µM
  viability at 50 µM: 107%
[5]; PANC-1, 100 µM
  viability at 100 µM: 112%
[5]; PANC-1, 200 µM
  viability at 200 µM: 113%
[5]; PANC-1, 300 µM
  viability at 300 µM: 110%
[5]; PANC-1, 500 µM
  viability at 500 µM: 105%
[6]; 10 µM
  viability at 10 µM: 110%
[6]; 20 µM
  viability at 20 µM: 107%
[6]; 50 µM
  viability at 50 µM: 111%
[6]; 100 µM
  viability at 100 µM: 113%
[6]; 200 µM
  viability at 200 µM: 113%
[6]; 300 µM
  viability at 300 µM: 112%
[6]; 500 µM
  viability at 500 µM: 107%
[7]; SK-MEL-30, 10 µM
  viability at 10 µM: 93.7%
[7]; SK-MEL-30, 20 µM
  viability at 20 µM: 99%
[7]; SK-MEL-30, 50 µM
  viability at 50 µM: 97.4%
[7]; SK-MEL-30, 100 µM
  viability at 100 µM: 105%
[7]; SK-MEL-30, 200 µM
  viability at 200 µM: 101%
[7]; SK-MEL-30, 300 µM
  viability at 300 µM: 98.4%
[7]; SK-MEL-30, 500 µM
  viability at 500 µM: 93.8%
[8]; MDA-MB-231, 10 µM
  viability at 10 µM: 97.5%
[8]; MDA-MB-231, 20 µM
  viability at 20 µM: 97.8%
[8]; MDA-MB-231, 50 µM
  viability at 50 µM: 94.5%
[8]; MDA-MB-231, 100 µM
  viability at 100 µM: 95.3%
[8]; MDA-MB-231, 200 µM
  viability at 200 µM: 86.5%
[8]; MDA-MB-231, 300 µM
  viability at 300 µM: 75.3%
[8]; MDA-MB-231, 500 µM
  viability at 500 µM: 57.4%
